Experimental data taken from PubChem BioAssay AID720513 (Broad Institute, 2013).
Results filed as inconclusive are left out.

test system: U2OS PGC1a acetylation AlphaLISA, overnight; test: activators raising PGC1a acetylation in cells, dose response, cell-based, cherry-picked samples, set 6 (AID 720513);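 further: cells made to overexpress flag tagged PGC1a plus GCN5 acetyltransferase by viral infection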

Row | SMILES | AC40
1 | O=S(=O)(NCc1ccccc1Br)c1ccccc1Br | 1.68 µM
2 | COc1ccc(N(C(=O)c2snc(C(N)=O)c2N)C(C(=O)NC2CCCC2)c2ccco2)c(OC)c1 (configuration not stated) | 3.85 µM
3 | O=C(Nc1ccccc1-c1ccccc1)NC1CC2CCCC(C1)N2Cc1ccc(F)cc1 (configuration not stated) | 10.5 µM
4 | COc1ccc(CCn2c(-c3ccc(OC)cc3)nc3c(c(=O)c4ccccc4n3C)c2=O)cc1 | 7.43 µM
5 | COc1ccc(CCNC(=O)COc2ccc(S(=O)(=O)N3CCCC3)cc2)cc1 | 19.3 µM
6 | COc1ccc(CNc2ccc(-c3ccc(OC)cc3)nn2)cc1 | 1.47 µM
7 | O=C(Cc1ccccc1)N1CCN(c2ccc([N+](=O)[O-])cc2)CC1 | 0.523 µM
8 | CC(=O)c1ccc(N2CCN(C(=O)C(=O)c3c(C)[nH]c4ccccc34)CC2)cc1 | 0.996 µM
9 | CC(C)NC(=O)N(C)C[C@H]1OCCCC[C@@H](C)Oc2ccc(NC(=O)Cc3ccccc3)cc2C(=O)N([C@@H](C)CO)C[C@H]1C | 16.4 µM
10 | Cc1ccc(-c2nnc(Nc3ccc4c(c3)OCO4)c3ccccc23)cc1S(=O)(=O)NCCO | 2.08 µM
11 | O=C(NCc1ccccc1)N1CCC(n2cnc3cc(F)ccc32)CC1 | 1.89 µM
12 | CCN1CCN(c2ncc(C(=O)Nc3cc(Cl)ccc3OC)c3ccccc23)CC1 | 5.32 µM
13 | COC(=O)[C@H](Cc1ccccc1)N(C)S(=O)(=O)c1cccc(S(=O)(=O)N(C)[C@@H](Cc2ccccc2)C(=O)OC)c1 | 9.66 µM
14 | O=C(Nc1ccc(-c2noc(-c3cccs3)n2)cc1)c1cccnc1 | 1.27 µM
15 | O=C(Nc1c(F)cccc1F)c1ccc(-n2cncn2)nc1 | 9.12 µM
16 | C[C@@H]1CN([C@H](C)CO)C(=O)c2c(c3ccccc3n2C)-c2ccccc2CO[C@@H]1CN(C)C(=O)Nc1ccccc1C(F)(F)F | 3.71 µM
17 | O=C(CSc1nc2ccccc2c(=O)n1CC1CCCO1)N1CCN(c2ccccc2)CC1 (configuration not stated) | 18.6 µM
18 | COc1ccccc1-c1ccc(C2[C@@H]3CN(Cc4cccc(F)c4)C[C@H]2N3)cc1 (some centres not stated) | 7.21 µM
19 | COc1ccc(S(=O)(=O)N(Cc2ccccc2)Cc2nc(-c3ccccc3)no2)cc1 | 8.22 µM
20 | Cc1nnc(NCc2ccccc2)c2ccccc12 | 3.04 µM
21 | O=C(c1ccco1)N1CCN(c2nnc(-c3ccccc3)c3ccccc23)CC1 | 4.28 µM
22 | O=C(NCc1cccs1)C1Cc2c(-c3ccc(Cl)cc3)ccnc2O1 (configuration not stated) | 8.86 µM
23 | O=C(Cc1ccccc1)Nc1cccc(-c2nc3ncccc3o2)c1 | 2.71 µM
24 | C=C[C@H]1C(C(=O)OCC)=CC[C@@H](c2ccccc2)N1S(=O)(=O)c1ccc(C)cc1 | 0.249 µM

Row | SMILES | AC40
25 | CN1CCN(C(=O)CSc2nc(-c3cccs3)cc(-c3cccs3)c2C#N)CC1 | 2.77 µM
26 | CC(C)(C)c1ccc(NC(=O)N2CCN(c3ccc([N+](=O)[O-])cn3)CC2)cc1 | < 0.16 µM
27 | CC(=O)Nc1sc2c(c1-c1nc3ccccc3s1)CN(C(C)C)CC2 | 1.45 µM
28 | Cc1ccccc1-c1ccc([C@@H]2[C@H](CO)N3CCCCN(C(=O)Nc4cccc(F)c4)C[C@@H]23)cc1 | 8.22 µM
29 | CCOc1ccccc1CN1CCN(C2CCC2)CC1CCO (configuration not stated) | 6.23 µM
30 | CCC(C)(C)n1nnnc1C(c1ccccc1OC)N1CCSCC1 (configuration not stated) | 1.45 µM
31 | CN(C(=O)C1CC1)C1CCS(=O)(=O)C1 (configuration not stated) | 15.2 µM
32 | CCC(C)(C)n1nnnc1CN(Cc1ccc(Cl)cc1)Cc1ccco1 | 1.39 µM
33 | CCOC(=O)c1c(C)n(C)c2ccc(OCC(O)Cn3nc(C)c(Br)c3C)cc12 (configuration not stated) | 0.556 µM
34 | Cc1ccc2c(c1)CC1(CN2C)C(=O)NC(=O)N(C(C)C)C1=O (configuration not stated) | 12 µM
35 | N#Cc1ccc(C(=O)CSc2nnc(-c3ccc(C(F)(F)F)cn3)s2)cc1 | 17.8 µM
36 | COc1ccccc1/C=C1\SC(=O)N(CCC(=O)NCCCn2ccnc2)C1=O | 2.07 µM
37 | Cc1ccc(S(=O)(=O)N2CCN(S(=O)(=O)c3ccc(C)cc3)C2c2ccccc2)cc1 | 2.7 µM
38 | O=C(NCc1ccc(Cl)cc1)C1CCC(CNc2c(N3CCCC3)c(=O)c2=O)CC1 (configuration not stated) | 6.36 µM
39 | Cc1ccc(CC(=O)N2CCN(c3ccc([N+](=O)[O-])cc3)CC2)cc1 | 0.312 µM
40 | CCOC(=O)C(C)n1cnc2c(nnn2-c2ccc(C)cc2)c1=O (configuration not stated) | 2.7 µM
41 | Cc1ccc(C(=O)c2c[nH]c(C(=O)NCc3cccnc3)c2)cc1 | 2.67 µM
42 | COc1ccc(S(=O)(=O)N2CCOCC2)cc1NC(=O)CCNC(=O)c1ccc([N+](=O)[O-])cc1 | < 0.3 µM
43 | Cc1cccc(C)c1OC1(c2ccccc2)OC(=O)c2ccccc21 (configuration not stated) | 1.1 µM
44 | O=C(Nc1cnc2ccccc2c1)c1cccnc1 | 0.651 µM
45 | COc1ccc(C#Cc2cnc3c(c2)C(=O)N([C@H](C)CO)C[C@H](C)[C@H](CN(C)S(=O)(=O)c2cccs2)O3)cc1OC | 18.2 µM
46 | C=C/C=C/[C@@H]1C(=C)CN2[C@H]1[C@H](Cc1ccccc1)OC(=O)[C@@H]2Cc1ccccc1 | 11.6 µM
47 | COC(=O)c1c(NC(=O)COC(=O)[C@@H](NS(=O)(=O)c2ccccc2)C(C)C)sc2c1CCC2 | 13.5 µM
48 | OC[C@H]1O[C@@H](n2cnc3c(NCc4ccco4)ncnc32)[C@H](O)[C@@H]1O | 7.4 µM

Row | SMILES | AC40
49 | CCOC(=O)c1c(-c2ccc(C)cc2C)csc1NC(=O)CSc1nnnn1C | 8.11 µM
50 | O=[N+]([O-])c1ccc(N2CCN(CC3CCCCC3)CC2)cc1 | 16 µM
51 | O=C(CN1CCC(n2nnc3cc(F)ccc32)CC1)NCc1ccco1 | 1.69 µM
52 | CC/C(=C(\c1ccc(O)cc1)c1ccc(OCCN(C)C)cc1)c1ccccc1 | 2.41 µM
53 | CCOc1ccc(S(=O)(=O)N2c3ccccc3CC2C)cc1 (configuration not stated) | 11.5 µM
54 | COc1cc(CN2[C@@H]3CNC[C@H]2C3c2ccc(-c3ccccc3)cc2)cc(OC)c1 (some centres not stated) | 18.3 µM
55 | C[C@H](CO)N1C[C@H](C)[C@@H](CN(C)Cc2ccc3c(c2)OCO3)Oc2ccc(NC(=O)Nc3ccc4c(c3)OCO4)cc2CC1=O | 18.2 µM
56 | Cc1cc(C(=O)NNS(=O)(=O)c2ccc(F)cc2)nn1C(C)(C)C | 1.09 µM
57 | O=S(=O)(c1ccccc1)N(CC(F)(F)F)c1ccc(C(O)(C(F)(F)F)C(F)(F)F)cc1 | 6.8 µM
58 | O=C(NCc1ccccc1)C(c1ccccc1)N(C(=O)c1csnn1)c1ccc(F)cc1 (configuration not stated) | 4.34 µM
59 | COc1cccc(-c2ccc(C3[C@@H]4CN(S(=O)(=O)c5cccc(OC)c5)C[C@H]3N4)cc2)c1 (some centres not stated) | 10.5 µM
60 | CC(=O)C1=CCC(c2cccc3ccccc23)N(S(=O)(=O)c2ccc(C)cc2)C1 (configuration not stated) | 18.7 µM
61 | O=C(Nc1ccc(-c2noc(CCc3ccccc3)n2)cc1)c1cccnc1 | 0.346 µM
62 | O=S(=O)(c1ccc(Cl)cc1)N1[C@@H]2CNC[C@H]1C2c1ccc(-c2cccc(F)c2)cc1 (some centres not stated) | < 2.6 µM
63 | C[C@@H]1CN([C@H](C)CO)C(=O)c2c(c3ccccc3n2C)-c2ccccc2CO[C@@H]1CN(C)C(=O)c1ccc(F)cc1 | 6.65 µM
64 | COc1ccccc1CN1C[C@@H]2N[C@H](C1)C2c1ccc(-c2ccccc2OC)cc1 (some centres not stated) | 20.8 µM
65 | Cn1ncc(Cl)c1C(=O)Nc1sc2c(c1C(N)=O)CCC2 | 5.65 µM
66 | C[C@H]1CN([C@@H](C)CO)S(=O)(=O)c2ccc(C#CCN(C)C)cc2O[C@@H]1CN(C)Cc1ccc2c(c1)OCO2 | 4.76 µM
67 | Cc1cccc(OC2(c3ccccc3)OC(=O)c3ccccc32)c1C (configuration not stated) | 3.37 µM
68 | C[C@@H]1CN([C@@H](C)CO)C(=O)Cc2cc(NC(=O)Cc3ccccc3)ccc2O[C@H]1CN(C)C(=O)Nc1ccccc1 | 0.263 µM
69 | COc1ccccc1NC(=O)c1ccc(NC(=O)CNC(=O)c2ccc(OC)c(OC)c2)cc1 | 15.7 µM
70 | CC1(C)CC(=O)C2=C(C1)Nc1ccccc1N1C(=O)c3ccccc3C21 (configuration not stated) | 2.15 µM
71 | Cc1cccc(Oc2nccc(C(F)(F)F)c2C(=O)Nc2ccc(F)cc2F)c1 | 11.9 µM
72 | CCOC(=O)c1[nH]c(C)c(C(=O)Nc2cc(OC)ccc2OC)c1C | 13 µM
